Source: patent US20180326080A1, “POLYMER-BASED THERAPEUTICS FOR INDUCTIVE BROWNING OF FAT” (Purdue Research Foundation, priority 2015, published 2018)

Experiments:
[1] = test system: cultured white adipocytes; assay: Notch inhibition and brown fat gene expression in cultured white adipocytes; format: cell-based; details: vs DMSO
Source text: (§1) Pharmacological inhibition of Notch signaling induces browning of white adipocytes during in vitro culture. Notch signaling is inhibited in cultured white adipocytes with the γ-secretase inhibitor DAPT (N—[N-(3,5-difluorophenacetyl)-1-alanyl]-S-phenylglycine t-butyl ester).

[2] = test system: cultured white adipocytes; assay: Oxygen consumption rate of adipocytes treated with DAPT; format: cell-based; details: vs adipocytes treated with DMSO
Source text: as §1

[3] = test system: diet induced obese (DIO) mouse model; assay: Local injection of DBZ-NPs into inguinal WAT of diet-induced obese mice; format: in vivo; details: in solution and nontargeted NP forms, vs nontreated obese mice
Procedure: All procedures regarding animal maintenance and experimental use were performed according to the regulation presented by Purdue University's Animal Care and Use Committee. 10-week-old male die-induced obese (DIO) mice with the C57BL/6 background were purchased from Taconic and housed under normal condition at Purdue University. High-fat diet (Research Diets #D12492, 60% fat) was used to induce and maintain obesity in the mice. Mice with average body weight of 36 g at 14 weeks started to receive nanoparticle treatment. […]
For GTT, mice were intraperitoneally injected with 100 mg/ml D-glucose (2 g kg-1 body weight) after 16 h fasting. Blood was drawn from tails and glucose levels were measured by a glucometer (Accu-Check Active, Roche). […] Glucose concentrations were measured in the blood drawn from tails. […]
Serum levels of free fatty acids, glucose, cholesterol, and triglycerides from fasted DIO mice after treatment of nanoparticles for 5 weeks were examined by standard kits from Randox Laboratories. The insulin level in the serum was measured by ELISA according to the manufacturer's instructions (ALPCO). […]
Total RNA was extracted from cells or tissues through Trizol (Life Technologies) in accordance with the manufacture's protocol. […] The quantitative PCR was performed on the Roche Light Cycler 96 PCR System (Roche). […]

Row | Compound | Notch signaling (mRNA levels of Notch targets) [1] | expression of brown fat specific genes Ucp1, Cidea, Prdm16 and Ppargc1a [1] | oxygen consumption rate (OCR) [2] | body weight gain [3]
1 | C[C@H](NC(=O)Cc1cc(F)cc(F)c1)C(=O)N[C@H](C(=O)OC(C)(C)C)c1ccccc1 [DAPT, (N—[N-(3,5-difluorophenacetyl)-1-alanyl]-S-phenylglycinet-butyl ester)] | inhibited Notch signaling | upregulated | higher | 
2 | CN(CCOc1ccc(CC2SC(=O)NC2=O)cc1)c1ccccn1 (stereo not shown) [Rosi] |  |  |  | no difference in body weight gain
